Assay results reported in ChEMBL document CHEMBL1268972, “Solid-phase synthesis and screening of N-acylated polyamine (NAPA) combinatorial libraries for protein binding” (Bioorg Med Chem Lett, 2010).

Experiment: Binding to HIV1 Vpr by isothermal titration calorimetry
Design: species or system Human immunodeficiency virus

Work on `C[C@H](CC(N)=O)N(C[C@@H](CCCCN)N(C[C@@H](CCCCN)N(C[C@@H](Cc1ccc(O)cc1)NC(=O)Cc1ccc([N+](=O)[O-])cc1)C(=O)CCc1ccccc1)C(=O)CCc1ccccc1)C(=O)CCc1ccccc1` yielded a Kd of 25 µM.
